Laboratory results published in article PMC9313812, “The Pseudo‐Natural Product Rhonin Targets RHOGDI” (Angewandte Chemie (International Ed. in English), 2022).

Columns and labels:
[1] = test system: Ptch1 and Gli1 expression in C3H/10T1/2 cells; test: RT-qPCR of Hh target genes; assay type: cell-based, mouse; settings: 1.5 μM purmorphamine, 96 h
Procedure: three times with PBS and mounted on glass slides using Aqua Polymount (Polysciences Inc).
Images were acquired as Z-sections with Leica SP5 confocal microscope using a 63x 1.40 NA
Oil objective (Leica Microsystems CMS GmbH, Mannheim, Germany). Image analysis was
performed using the software ImageJ. Briefly, Z-stacks were converted to intensity sum
projections, after previous background subtraction. For quantification, cilia were identified and
marked based on the acetylated-tubulin staining intensities and the intensities of the anti-
Smoothened antibody were measured within these areas. Results were visualized and
significances were assessed using an unpaired t-test (confidence interval of 95%) with the
software GraphPad Prism 7, GraphPad software, USA). Three independent biological
replicates were performed and for each replicate at least 100 cilia per condition were analyzed.
Reverse transcription- quantitative PCR (RT-qPCR)
C3H10T1/2 cells were seeded (1×10^5 per well) in 6-well plates. 48 h later cells were treated […]
DNase I digestion step. The concentration of purified RNA was determined by means of the […]
QuantiTect Reverse Transcription Kit (Qiagen) according to the manufacturer’s protocol. […]
determined by means of quantitative RT-PCR using the QuantiFast SYBR Green PCR Kit […]
genes. The expression levels of Ptch1 and Gli1 were determined using the 2−ΔΔCt method.[6] […]

RHOGDI1-RAC1 interaction = target: T1, RHOGDI1-RAC1 interaction (Homo sapiens, UniProt P52565); test: Surface plasmon resonance: RHOGDI1-mediated displacement of GerGer-RAC1-GDP from immobilized liposomes; assay type: biochemical; settings: for Effect on kinetics of geranylgeranylated RAC1 extraction by RHOGDI1 (in words): SPR
T1 construct: GST; made in house; host or cells: RHOGDI1: E. coli; GerGer-RAC1: insect cells (TNAO38)
T1 sequence (P52565 1-204): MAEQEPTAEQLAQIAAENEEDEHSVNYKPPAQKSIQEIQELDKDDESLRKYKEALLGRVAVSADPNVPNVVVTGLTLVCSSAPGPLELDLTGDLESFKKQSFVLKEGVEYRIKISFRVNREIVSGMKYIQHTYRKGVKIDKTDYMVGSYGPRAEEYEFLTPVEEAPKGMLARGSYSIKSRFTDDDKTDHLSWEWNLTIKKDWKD
Procedure: RHOGDI1 displaced liposome -bound RAC1 from the surface of L1 chip with a koff of 0.016 […]
bound RAC1. Calculated rate constants by mono-exponential fitting of RU decays were 0.02 and 0.032 s-1 for RHOGDI1-mediated RAC1 displacement from the liposomes in the presence of 7a and 7d, respectively. (d) Competition-based fluorescence polarization experiments were performed by titration of 7a against 10 nM fluorescein-labelled atorvastatin and GST-PDEδ.
(e) Fluorescence polarization experiment using 10 nM probe 10 and titration of PDEδ.
(1 picture or pasted object on this page, not shown here)
Surface plasmon resonance (SPR)
Biacore® X100 instrument (Biacore, now GE Healthcare) was used to analyze the effect of 7a on the GerGer-RAC1-GDP and RHOGDI1 interaction. Liposomes suspended in SPR buffer (20 mM HEPES, pH 7.4, 50 mM NaCl, 5 mM MgCl2, 3 mM DTT) were immobilized by injecting 0.5 mM liposomes with flowrate of 5 µL/min on the surface of a Pioneer® L1 sensor chip (GE Healthcare) for the period of 900 s, as indicated by a constant signal. Unbound liposomes were removed by passing the buffer and 10 mM NaOH with flowrate of 5 µL/min for 30 s over the sensor chip. Buffer containing 15 µM GerGer-RAC1-GDP was passed with flowrate of 5 µL/min over the immobilized liposomes to facilitate the loading of GerGer-RAC1-GDP on to the liposomes. The effect of compounds on the association of GerGer-RAC1-GDP with liposomes and the resulting dissociation of GerGer-RAC1 upon passing 25 µM of RHOGDI1 was monitored by the change in the response unit signal.
Protein expression and purification
RHOGDI1 delta15, RHOGDI1 delta25, RHOGDI1-3 were produced in E. coli (XL1-Blue) as a GST recombinant protein as described previously.[9] In summary, protein were expressed in E.coli BL21 upon addition of IPTG overnight. Cell were collected and lysed in a lysis buffer, containing 30 mM Tris-NaOH pH 7.4, 150 mM NaCl, 1 mM DTT, and 5 mM MgCl2. Cells were further lysed using sonication. […]

Structure (SMILES): COC(=O)C1(C(CC(=O)c2ccccc2)c2ccccc2)N=C(c2ccc(Br)cc2)C2C(=O)N(C)C(=O)C21 (centres unmarked) [7a]
- Expression of the Hh target genes Ptch1 and Gli1 (remaining) ([1]; 5 μM, purmorphamine-treated cells = 100 %): approx. 50%
- Effect on kinetics of geranylgeranylated RAC1 extraction by RHOGDI1 (in words) (RHOGDI1-RAC1 interaction): slowed down the kinetics

Structure (SMILES): COC(=O)C1(CCC(=O)c2ccc(F)cc2)N=C(c2ccc(Br)cc2)C2C(=O)N(C)C(=O)C21 (centres unmarked) [7d]
- Rate constant of RHOGDI1-mediated RAC1 displacement from liposomes in presence of compound (RHOGDI1-RAC1 interaction; 25 µM RHOGDI1, mono-exponential fitting of RU decays): 0.032 s⁻¹
- Effect on kinetics of geranylgeranylated RAC1 extraction by RHOGDI1 (in words) (RHOGDI1-RAC1 interaction): did not

Structure (SMILES): COC(=O)C1(C(CC(=O)c2cccnc2)c2ccccc2)N=C(c2ccc(Br)cc2)C2C(=O)N(C)C(=O)C21 (centres unmarked) [7l]
- Expression of the Hh target genes Ptch1 and Gli1 (in words) [1]: only slightly reduced
